Assay results as given in patent US4813876A, “Method of treating living pulp tissue” (Dentsply Research & Development Corp., priority 1987, dated 1989).

System: L929 mouse fibroblast cells
Test: Tissue culture MEM elution test (cytotoxicity)
Assay type: cell-based
Conditions: 25 mg
Procedure: One accepted method for determining the necessary biocompatibility of various compositions toward living tissue is an in vitro cell culture biocompatibility method wherein samples of the compositions to be tested are extracted in a bovine serum solution in a Minimum Essential Medium (MEM), whereafter the bovine serum solution and specified animal cells, such as human (WI-38), L929 mouse fibroblast cells or their equivalent, are incubated in a MEM for a predetermined period of time, and the incubated cells are visually observed and graded for cytotoxic manifestations. See, for example, R. E. Wilsnack, Quantitative Cell Culture Biocompatibility Testing of Medical Devices and Correlation To Animal Tests, Biomat, Med. Dev. Art. Org., 4(3& 4), 235-261 (1976). In connection with the present compositions, the in vitro cell culture method preferably is performed using L929 mouse fibroblast cells which have been cultured in a growth medium consisting of 5% bovine serum solution in MEM, wherein the bovine serum solution initially was used to extract a specified mass of cured or uncured material, as the case may be, and wherein the cells were incubated at 37°±2° C. for a specified period of time, e.g., 24, 48 or 72 hours. The degree of toxicity may be stated as a function of the percentage of the cells which have been lysed or fixed over the test period. […]

[Ca+2].[OH-].[OH-] [Calcium Hydroxide, calcium hydroxide]
Cytotoxic manifestation (footnote ***) (2 hours after extract placed on cells): All cells dead after 2 hours
24 hr results (% Lysed or fixed) (Table I, curing time 0 s, 24 hr): 100%
